Columns and labels:
recombinant NL4-3 virus = test: HIV cell culture assay (antiviral activity, luciferase readout); type: cell-based; details: Human immunodeficiency virus 1, NL43, MT2, MT-2 cells infected for 4-5 days with recombinant NL4-3 virus carrying Renilla luciferase
Method: HIV cell culture assay—MT-2 cells, 293T cells and the proviral DNA clone of NL4-3 virus were obtained from the NIH AIDS Research and Reference Reagent Program. MT-2 cells were propagated in RPMI 1640 media supplemented with 10% heat inactivated fetal bovine serum (FBS), […]. The 293T cells were propagated in DMEM media supplemented with 10% heat inactivated FBS, […]. A recombinant NL4-3 proviral clone, in which a section of the nef gene was replaced with the Renilla luciferase gene, was used to make the reference virus used in these studies. The recombinant virus was prepared through transfection of the recombinant NL4-3 proviral clone into 293T cells using Transit-293 Transfection Reagent from Mirus Bio LLC (Madison, WI). Supernatent was harvested after 2-3 days and the amount of virus present was titered in MT-2 cells using luciferase enzyme activity as a marker by measuring luciferase enzyme activity. Luciferase was quantitated using the EnduRen Live Cell Substrate from Promega (Madison, Wis.). Antiviral activities of compounds toward the recombinant virus were quantified by measuring luciferase activity in MT-2 cells infected for 4-5 days with the recombinant virus in the presence of serial dilutions of the compound.
The 50% effective concentration (EC50) was calculated by using the exponential form of the median effect equation where (Fa)=1/[1+(ED50/drug conc.)m] (Johnson VA, Byington RT. Infectivity Assay. In Techniques in HIV Research. ed. Aldovini A, Walker BD. 71-76. New York: Stockton Press. 1990). The 50% inhibitory concentration (EC50) was calculated by using the exponential form of the median effect equation where percent inhibition=1/[1+(EC50/drug concentration)m], where m is a parameter that reflects the slope of the concentration-response curve.

[1] = Compound cytotoxicity, XTT-based colorimetric assay; type: cell-based; details: human; uninfected MT2 cells, day 4, XTT assay
Method: Compound cytotoxicity and the corresponding CC50 values were determined using the same protocol as described in the antiviral assay except that uninfected cells were used. Cytotoxicity was assessed on day 4 in uninfected MT2 cells by using a XTT (2,3-bis[2-Methoxy-4-nitro-5-sulfophenyl]-2H-tetrazolium-5-carboxyanilide inner salt)-based colorimetric assay (Sigma-Aldrich, St Louis, Mo.).

| Structure (SMILES) | EC50 (recombinant NL4-3 virus) | CC50 at 4 day [1] |
| --- | --- | --- |
| Cn1nc(NS(C)(=O)=O)c2c(Cl)ccc(-n3c([C@H](Cc4cc(F)cc(F)c4)NC(=O)Cn4nc(C(F)F)c5c4C(F)(F)[C@@H]4C[C@H]54)nc4nc(-c5ccccn5)ccc4c3=O)c21 (atropisomer, axis not shown; (P)) [Example 60, N-((S)-1-((3P)-3-(4-chloro-1-methyl-3-(methylsulfonamido)-1H-indazol-7-yl)-4-oxo-7-(pyridin-2-yl)-3,4-dihydropyrido[2,3-d]pyrimidin-2-yl)-2-(3,5-difluorophenyl)ethyl)-2-((3bS,4aR)-3-(difluoromethyl)-5,5-difluoro-3b,4,4a,5-tetrahydro-1H-cyclopropa[3,4]cyclopenta[1,2-c]pyrazol-1-yl)acetamide] | 0.032 nM | > 100 nM |
| CC(C)Cn1nccc1-c1ccc2c(=O)n(-c3ccc(Cl)c4c(NS(C)(=O)=O)nn(C)c34)c([C@H](Cc3cc(F)cc(F)c3)NC(=O)Cn3nc(C(F)F)c4c3C(F)(F)[C@@H]3C[C@H]43)nc2n1 (atropisomer, axis not shown; (P)) [Example 69, N-((S)-1-((3P)-3-(4-chloro-1-methyl-3-(methylsulfonamido)-1H-indazol-7-yl)-7-(1-isobutyl-1H-pyrazol-5-yl)-4-oxo-3,4-dihydropyrido[2,3-d]pyrimidin-2-yl)-2-(3,5-difluorophenyl)ethyl)-2-((3bS,4aR)-3-(difluoromethyl)-5,5-difluoro-3b,4,4a,5-tetrahydro-1H-cyclopropa[3,4]cyclopenta[1,2-c]pyrazol-1-yl)acetamide] | 0.099 nM | > 100 nM |
| Cn1nc(NS(C)(=O)=O)c2c(Cl)ccc(-n3c([C@H](Cc4cc(F)cc(F)c4)NC(=O)Cn4nc(C(F)F)c5c4C(F)(F)[C@@H]4C[C@H]54)nc4nc(-c5cnn(CCF)c5)ccc4c3=O)c21 (atropisomer, axis not shown; (P)) [Example 76, N-((S)-1-((3P)-3-(4-chloro-1-methyl-3-(methylsulfonamido)-1H-indazol-7-yl)-7-(1-(2-fluoroethyl)-1H-pyrazol-4-yl)-4-oxo-3,4-dihydropyrido[2,3-d]pyrimidin-2-yl)-2-(3,5-difluorophenyl)ethyl)-2-((3bS,4aR)-3-(difluoromethyl)-5,5-difluoro-3b,4,4a,5-tetrahydro-1H-cyclopropa[3,4]cyclopenta[1,2-c]pyrazol-1-yl)acetamide] | 0.11 nM | > 100 nM |
| Cn1nc(NS(C)(=O)=O)c2c(Cl)ccc(-n3c([C@H](Cc4cc(F)cc(F)c4)NC(=O)Cn4nc(C(F)F)c5c4C(F)(F)[C@@H]4C[C@H]54)nc4nc(-n5cc(C(F)(F)F)cn5)ccc4c3=O)c21 (atropisomer, axis not shown; (P)) [Example 66, N-((S)-1-((3P)-3-(4-chloro-1-methyl-3-(methylsulfonamido)-1H-indazol-7-yl)-4-oxo-7-(4-(trifluoromethyl)-1H-pyrazol-1-yl)-3,4-dihydropyrido[2,3-d]pyrimidin-2-yl)-2-(3,5-difluorophenyl)ethyl)-2-((3bS,4aR)-3-(difluoromethyl)-5,5-difluoro-3b,4,4a,5-tetrahydro-1H-cyclopropa[3,4]cyclopenta[1,2-c]pyrazol-1-yl)acetamide] | 0.07 nM | > 100 nM |
| Cn1nc(NS(C)(=O)=O)c2c(Cl)ccc(-n3c([C@H](Cc4cc(F)cc(F)c4)NC(=O)Cn4nc(C(F)F)c5c4C(F)(F)[C@@H]4C[C@H]54)nc4nc(-c5ncc(Cl)nc5Cl)ccc4c3=O)c21 (atropisomer, axis not shown; (P)) [Example 57, N-((S)-1-((3P)-3-(4-chloro-1-methyl-3-(methylsulfonamido)-1H-indazol-7-yl)-7-(3,5-dichloropyrazin-2-yl)-4-oxo-3,4-dihydropyrido[2,3-d]pyrimidin-2-yl)-2-(3,5-difluorophenyl)ethyl)-2-((3bS,4aR)-3-(difluoromethyl)-5,5-difluoro-3b,4,4a,5-tetrahydro-1H-cyclopropa[3,4]cyclopenta[1,2-c]pyrazol-1-yl)acetamide] | 0.073 nM | > 100 nM |
| COc1cncc(-c2ccc3c(=O)n(-c4ccc(Cl)c5c(NS(C)(=O)=O)nn(C)c45)c([C@H](Cc4cc(F)cc(F)c4)NC(=O)Cn4nc(C(F)F)c5c4C(F)(F)[C@@H]4C[C@H]54)nc3n2)c1 (atropisomer, axis not shown; (P)) [Example 51, N-((S)-1-((3P)-3-(4-chloro-1-methyl-3-(methylsulfonamido)-1H-indazol-7-yl)-7-(5-methoxypyridin-3-yl)-4-oxo-3,4-dihydropyrido[2,3-d]pyrimidin-2-yl)-2-(3,5-difluorophenyl)ethyl)-2-((3bS,4aR)-3-(difluoromethyl)-5,5-difluoro-3b,4,4a,5-tetrahydro-1H-cyclopropa[3,4]cyclopenta[1,2-c]pyrazol-1-yl)acetamide] | 0.085 nM | > 100 nM |
| Cn1nc(NS(C)(=O)=O)c2c(Cl)ccc(-n3c([C@H](Cc4cc(F)cc(F)c4)NC(=O)Cn4nc(C(F)F)c5c4C(F)(F)[C@@H]4C[C@H]54)nc4nc(-c5cc(C(F)(F)F)cc(C(F)(F)F)n5)ccc4c3=O)c21 (atropisomer, axis not shown; (P)) [Example 14, N-((S)-1-(7-(4,6-bis(trifluoromethyl)pyridin-2-yl)-(3P)-3-(4-chloro-1-methyl-3-(methylsulfonamido)-1H-indazol-7-yl)-4-oxo-3,4-dihydropyrido[2,3-d]pyrimidin-2-yl)-2-(3,5-difluorophenyl)ethyl)-2-((3bS,4aR)-3-(difluoromethyl)-5,5-difluoro-3b,4,4a,5-tetrahydro-1H-cyclopropa[3,4]cyclopenta[1,2-c]pyrazol-1-yl)acetamide] | 0.28 nM | > 100 nM |
| Cc1cc(-c2ccc3c(=O)n(-c4ccc(Cl)c5c(NS(C)(=O)=O)nn(C)c45)c([C@H](Cc4cc(F)cc(F)c4)NC(=O)Cn4nc(C(F)F)c5c4C(F)(F)[C@@H]4C[C@H]54)nc3n2)nc(C(F)(F)F)n1 (atropisomer, axis not shown; (P)) [Example 18, N-((S)-1-((3P)-3-(4-chloro-1-methyl-3-(methylsulfonamido)-1H-indazol-7-yl)-7-(6-methyl-2-(trifluoromethyl)pyrimidin-4-yl)-4-oxo-3,4-dihydropyrido[2,3-d]pyrimidin-2-yl)-2-(3,5-difluorophenyl)ethyl)-2-((3bS,4aR)-3-(difluoromethyl)-5,5-difluoro-3 b,4,4a,5-tetrahydro-1H-cyclopropa[3,4]cyclopenta[1,2-c]pyrazol-1-yl)acetamide] | 0.068 nM | > 100 nM |
| Cn1nc(NS(C)(=O)=O)c2c(Cl)ccc(-n3c([C@H](Cc4cc(F)cc(F)c4)NC(=O)Cn4nc(C(F)F)c5c4C(F)(F)[C@@H]4C[C@H]54)nc4nc(-c5ccnnc5)ccc4c3=O)c21 (atropisomer, axis not shown; (P)) [Example 33, N-((S)-1-((3P)-3-(4-chloro-1-methyl-3-(methylsulfonamido)-1H-indazol-7-yl)-4-oxo-7-(pyridazin-4-yl)-3,4-dihydropyrido[2,3-d]pyrimidin-2-yl)-2-(3,5-difluorophenyl)ethyl)-2-((3bS,4aR)-3-(difluoromethyl)-5,5-difluoro-3b,4,4a,5-tetrahydro-1H-cyclopropa[3,4]cyclopenta[1,2-c]pyrazol-1-yl)acetamide] | 0.45 nM | > 100 nM |
| Cn1nc(NS(C)(=O)=O)c2c(Cl)ccc(-n3c([C@H](Cc4cc(F)cc(F)c4)NC(=O)Cn4nc(C(F)F)c5c4C(F)(F)[C@@H]4C[C@H]54)nc4ncc(-c5nccc(C(F)F)n5)cc4c3=O)c21 (atropisomer, axis not shown; (P)) [Example 2, N-((S)-1-((3P)-3-(4-chloro-1-methyl-3-(methylsulfonamido)-1H-indazol-7-yl)-6-(4-(difluoromethyl)pyrimidin-2-yl)-4-oxo-3,4-dihydropyrido[2,3-d]pyrimidin-2-yl)-2-(3,5-difluorophenyl)ethyl)-2-((3bS,4aR)-3-(difluoromethyl)-5,5-difluoro-3b,4,4a,5-tetrahydro-1H-cyclopropa[3,4]cyclopenta[1,2-c]pyrazol-1-yl)acetamide] | 0.031 nM | > 100 nM |
